Assays:
Escherichia coli [1] = assay: Photodynamic antibacterial activity against Escherichia coli ATCC 25922 assessed as reduction in bacterial burden after 24 hrs in presence of diode laser at 6 J/cm2; assay type: functional
Enterococcus faecalis [2] = assay: Photodynamic antibacterial activity against Enterococcus faecalis assessed as reduction in bacterial burden in presence of light irradiation; assay type: functional, organism-based
Escherichia coli [3] = assay: Photodynamic antibacterial activity against Escherichia coli assessed as reduction in bacterial burden at 5 uM after 15 mins in presence of light irradiation at 64.8 J/cm2; assay type: functional, organism-based
Staphylococcus aureus [4] = assay: Photodynamic antibacterial activity against Staphylococcus aureus assessed as bacterial killing within 15 mins in presence of tungsten lamps light at 37 uEm'-2sec'-1 by spectrophotometic analysis relative to control; assay type: functional
Saccharomyces cerevisiae = assay: Photodynamic fungal activity against Saccharomyces cerevisiae assessed as reduction in fungal burden at 100 nM; assay type: functional
Pseudomonas aeruginosa [5] = assay: Photodynamic antibacterial activity against Pseudomonas aeruginosa assessed as reduction in biofilm formation at 0.5 mg/ml in presence of light at 100 J/cm2; assay type: functional
Pseudomonas aeruginosa [6] = assay: Photodynamic antibacterial activity against Pseudomonas aeruginosa assessed as biofilm formation at 0.5 mg/ml in presence of light at 100 J/cm2 relative to control; assay type: functional
Pseudomonas aeruginosa [7] = assay: Photodynamic antibacterial activity against Pseudomonas aeruginosa assessed as reduction in biofilm formation at 20 uM incubated for 10 mins in presence of tungsten halogen lamp light exposure at 22.5 to 180 J/cm2; assay type: functional
Staphylococcus aureus [8] = assay: Photodynamic antibacterial activity against Staphylococcus aureus assessed as reduction in biofilm activity at 2.5 uM incubated for 10 mins in presence of tungsten halogen lamp light exposure at 22.5 to 180 J/cm2; assay type: functional
Porphyromonas gingivalis = assay: Photodynamic antibacterial activity against Porphyromonas gingivalis assessed as reduction in bacterial viability at 10 uM in presence of light at 5.3 to 20.1 J/cm2 by propidium iodide staining-based fluorescence assay; assay type: functional
Fusobacterium nucleatum = assay: Photodynamic antibacterial activity against Fusobacterium nucleatum assessed as reduction in bacterial viability at 10 uM in presence of light at 5.3 to 20.1 J/cm2 by propidium iodide staining-based fluorescence assay; assay type: functional
[9] = tested on: Capnocytophaga gingivalis; assay: Photodynamic antibacterial activity against Capnocytophaga gingivalis assessed as reduction in bacterial viability at 10 uM in presence of light at 5.3 to 20.1 J/cm2 by propidium iodide staining-based fluorescence assay; assay type: functional
Eikenella corrodens = assay: Photodynamic antibacterial activity against Eikenella corrodens assessed as reduction in bacterial viability at 10 uM in presence of light at 20.1 J/cm2 by propidium iodide staining-based fluorescence assay; assay type: functional
[10] = tested on: Aggregatibacter actinomycetemcomitans; assay: Photodynamic antibacterial activity against Aggregatibacter actinomycetemcomitans assessed as reduction in bacterial viability at 10 uM in presence of light at 5.3 J/cm2 by propidium iodide staining-based fluorescence assay; assay type: functional
[11] = tested on: Aggregatibacter actinomycetemcomitans; assay: Photodynamic antibacterial activity against Aggregatibacter actinomycetemcomitans assessed as reduction in bacterial viability at 10 uM in presence of light at 20.1 J/cm2 by propidium iodide staining-based fluorescence assay; assay type: functional
Escherichia coli [12] = assay: Photodynamic antibacterial activity against Escherichia coli assessed as reduction in bacterial burden at 0.5 to 1 uM after 15 mins in presence of light irradiation at 1004 J/cm2; assay type: functional
Enterococcus faecalis [13] = assay: Photodynamic antibacterial activity against Enterococcus faecalis assessed as reduction in bacterial burden at 5 uM after 15 mins in presence of light irradiation at 21.6 J/cm2; assay type: functional
Enterococcus faecalis [14] = assay: Photodynamic antibacterial activity against Enterococcus faecalis assessed as reduction in bacterial burden at 10 uM in presence of light irradiation at 100 J/cm2; assay type: functional
Enterococcus faecalis [15] = assay: Photodynamic antibacterial activity against Enterococcus faecalis assessed as reduction in bacterial burden at 30 uM in presence of light irradiation at 100 J/cm2; assay type: functional
Enterococcus faecalis [16] = assay: Dark toxicity against Enterococcus faecalis assessed as reduction in bacterial burden; assay type: organism-based; conditions: in vivo
Staphylococcus aureus [17] = assay: Photodynamic antibacterial activity against Staphylococcus aureus assessed as reduction in bacterial burden at 100 nM; assay type: functional
Helicobacter pylori [18] = assay: Photodynamic antibacterial activity against Helicobacter pylori infected in patient assessed as bacterial eradication at 20 mg/lg, po after 4 hrs in presence of white light relative to control; assay type: functional
Helicobacter pylori [19] = assay: Photodynamic antibacterial activity against Helicobacter pylori infected in patient assessed as bacterial eradication at 20 mg/lg, po after 4 hrs in presence of blue light relative to control; assay type: functional
Pseudomonas aeruginosa [20] = assay: Photodynamic antibacterial activity against Pseudomonas aeruginosa assessed as reduction in bacterial burden at 100 to 225 uM preincubated with bacteria followed by exposure of mercury vapor lamp light at 100 J/cm2 for 10 mins; assay type: functional
Pseudomonas aeruginosa [21] = assay: Photodynamic antibacterial activity against Pseudomonas aeruginosa assessed as bacterial killing at 2.5 mg/ml in presence of light at 100 J/cm2 relative to control; assay type: functional
Pseudomonas aeruginosa [22] = assay: Photodynamic antibacterial activity against Pseudomonas aeruginosa assessed as reduction in biofilm formation at 5 mg/ml in presence of light at 100 J/cm2 relative to control; assay type: functional; design: scale not given: the % may be the effect or the level left
Pseudomonas aeruginosa [23] = assay: Photodynamic antibacterial activity against Pseudomonas aeruginosa assessed as reduction in bacterial burden at 225 uM in presence of light at 100 J/cm2; assay type: functional
Pseudomonas aeruginosa [24] = assay: Photodynamic antibacterial activity against Pseudomonas aeruginosa assessed as reduction in bacterial burden at 1 to 10 uM preincubated for 10 mins in dark condition followed by exposure of LED light at 66 to 266 J/cm2; assay type: functional
Pseudomonas aeruginosa [25] = assay: Photodynamic antibacterial activity against Pseudomonas aeruginosa assessed as bacterial burden at 1 to 10 uM preincubated for 10 mins in dark condition followed by exposure of LED light at 66 to 266 J/cm2 relative to control; assay type: functional
Enterococcus faecalis [26] = assay: Photodynamic antibacterial activity against Enterococcus faecalis assessed as reduction in bacterial burden at 5 uM after 15 mins in presence of light irradiation at 14.4 J/cm2; assay type: functional
Enterococcus faecalis [27] = assay: Photodynamic antibacterial activity against Enterococcus faecalis assessed as reduction in bacterial burden at 5 uM after 15 mins in presence of light irradiation at 64.8 J/cm2; assay type: functional
Enterococcus faecalis [28] = assay: Photodynamic antibacterial activity against Enterococcus faecalis assessed as reduction in bacterial burden at 10 uM after 15 mins in presence of light irradiation at 64.8 J/cm2; assay type: functional

SMILES: C=Cc1c(C)c2cc3nc(c(C=O)c4[nH]c(cc5nc(cc1[nH]2)C(C)=C5C)c(C)c4C(=O)O)[C@@H](CCC(=O)O)[C@@H]3C
- log(activity) (Escherichia coli [1]): 0.17

SMILES: C[n+]1ccc(-c2c3nc(c(-c4ccc(C(=O)O)cc4)c4ccc([nH]4)c(-c4cc[n+](C)cc4)c4nc(c(-c5ccc(C(=O)O)cc5)c5ccc2[nH]5)C=C4)C=C3)cc1
- log(activity) (Enterococcus faecalis [2]): 0.88
- log(activity) (Escherichia coli [3]): > 3

SMILES: CC1=Cc2cc3[nH]c(cc4nc(cc5[nH]c(cc1n2)cc5C)C(C)=C4CCC(=O)O)c(CCC(=O)O)c3C
- Activity (Staphylococcus aureus [4]): 99.9%

SMILES: CC1(C)Cc2cc3[nH]c(cc4nc(cc5[nH]c(cc1n2)cc5CN(CCO)CCO)CC4(C)C)cc3CN(CCO)CCO
- log(activity) (Saccharomyces cerevisiae): >6

SMILES: C[n+]1ccc(-c2c3nc(c(-c4cc[n+](C)cc4)c4ccc([nH]4)c(-c4cc[n+](C)cc4)c4nc(c(-c5cc[n+](C)cc5)c5ccc2[nH]5)C=C4)C=C3)cc1.Cc1ccc(S(=O)(=O)[O-])cc1.Cc1ccc(S(=O)(=O)[O-])cc1.Cc1ccc(S(=O)(=O)[O-])cc1.Cc1ccc(S(=O)(=O)[O-])cc1
- log(activity) (Pseudomonas aeruginosa [5]): 4
- Activity (Pseudomonas aeruginosa [6]): 99.9%

SMILES: CN(C)CCCOc1ccc(-c2c3nc(c(-c4ccc(OCCCN(C)C)cc4)c4ccc([nH]4)c(-c4ccc(OCCCN(C)C)cc4)c4nc(c(-c5ccc(OCCCN(C)C)cc5)c5ccc2[nH]5)C=C4)C=C3)cc1
- log(activity) (Pseudomonas aeruginosa [7]): 3
- log(activity) (Staphylococcus aureus [8]): 8

SMILES: C[n+]1ccc(-c2c3nc(c(-c4cc[n+](C)cc4)c4ccc([nH]4)c(-c4ccc(C(=O)O)cc4)c4nc(c(-c5ccc(C(=O)O)cc5)c5ccc2[nH]5)C=C4)C=C3)cc1
- log(activity) (Enterococcus faecalis [2]): 7.03
- log(activity) (Escherichia coli [3]): > 3

SMILES: CC[C@H](C)CCCCCCCCCCC(=O)OC[C@H]1O[C@@H](OC(=O)/C(C)=C/C=C/C(C)=C/C=C/C(C)=C/C=C/C=C(C)/C=C/C=C(\C)CCC=C(C)C)[C@H](O)[C@@H](O)[C@@H]1O
- log(activity) (Porphyromonas gingivalis): 4.9
- log(activity) (Fusobacterium nucleatum): 5.3
- log(activity) [9]: 6.7
- log(activity) (Eikenella corrodens): 3
- log(activity) [10]: -0.2
- log(activity) [11]: -1

SMILES: C[n+]1ccc(-c2c3nc(c(-c4cc[n+](C)cc4)c4ccc([nH]4)c(-c4c(F)c(F)c(F)c(F)c4F)c4nc(c(-c5cc[n+](C)cc5)c5ccc2[nH]5)C=C4)C=C3)cc1.[I-].[I-].[I-]
- log(activity) (Escherichia coli [12]): 3

SMILES: COC(=O)c1ccc(-c2c3nc(c(-c4cc[n+](C)cc4)c4ccc([nH]4)c(-c4cc[n+](C)cc4)c4nc(c(-c5cc[n+](C)cc5)c5ccc2[nH]5)C=C4)C=C3)cc1.[I-].[I-].[I-]
- log(activity) (Enterococcus faecalis [13]): 7

SMILES: Oc1cccc(-c2c3nc(c(-c4cccc(O)c4)c4ccc([nH]4)c(-c4cccc(O)c4)c4nc(c(-c5cccc(O)c5)c5ccc2[nH]5)CC4)C=C3)c1 [TEMOPORFIN]
- log(activity) (Enterococcus faecalis [14]): 5.8
- log(activity) (Enterococcus faecalis [15]): 6.7
- log(activity) (Enterococcus faecalis [16]): 1.5

SMILES: CC1(C)Cc2cc3[nH]c(cc4nc(cc5[nH]c(cc1n2)cc5C(=O)NCC[N+](C)(C)C)CC4(C)C)cc3C(=O)NCC[N+](C)(C)C
- log(activity) (Staphylococcus aureus [17]): 5

SMILES: NCC(=O)CCC(=O)O [AMINOLEVULINIC ACID]
- Activity (Helicobacter pylori [18]): 85%
- Activity (Helicobacter pylori [19]): 66%

SMILES: C[n+]1ccc(-c2c3nc(c(-c4cc[n+](C)cc4)c4ccc([nH]4)c(-c4cc[n+](C)cc4)c4nc(c(-c5cc[n+](C)cc5)c5ccc2[nH]5)C=C4)C=C3)cc1.[I-].[I-].[I-].[I-]
- log(activity) (Pseudomonas aeruginosa [20]): 4.1
- Activity (Pseudomonas aeruginosa [21]): >99%
- Activity (Pseudomonas aeruginosa [22]): >99%
- log(activity) (Pseudomonas aeruginosa [23]): 1.2
- log(activity) (Pseudomonas aeruginosa [24]): <1
- Activity (Pseudomonas aeruginosa [25]): >80%
- log(activity) (Enterococcus faecalis [13]): 7
- log(activity) (Enterococcus faecalis [26]): 7.35
- log(activity) (Enterococcus faecalis [27]): 7.33
- log(activity) (Enterococcus faecalis [28]): 5.07

From ChEMBL document CHEMBL4346724, “Porphyrinoid photosensitizers mediated photodynamic inactivation against bacteria” (Eur J Med Chem, 2019)
